Measurements published in patent US20060166894A1, “Ace-inhibitors having antioxidant and no-donor activity” (Yissum Research Development Company of the Hebrew …, priority 2002, published 2006).

Biological target: T1, recombinant human somatic ACE (Homo sapiens, UniProt P12821)
T1 construct: purchased R&D Systems
Test: ACE activity, cleavage of fluorogenic peptide substrate
Assay type: biochemical
Conditions: fluorogenic substrate 10 μM, 50 mM sodium borate buffer pH 8.2, 37° C.
Text: Angiotensin converting enzyme (ACE) is a dipeptidyl carboxypeptidase that releases the C-terminal dipeptide His-Leu from decapeptide angiotensin I, converting it to the vasoconstrictor angiotensin II (Ang II). The assay for ACE activity will measure the cleavage of a fluorogenic peptide substrate, (7-methoxycoumarin-4-yl)acetyl-Arg-Pro-Pro-Gly-Phe-Ser-Ala-Phe-Lys(2,4 dinitrophenyl; R&D Systems). This peptide substrate contains a fluorescent 7-methoxycoumarin group that is internally quenched by resonance energy transfer to the 2,4-dinitrophenyl group. ACE cleaves the peptide between the Ala-Phe (between the fluorescent group and the quencher group), resulting in an increase in fluorescence. The assay is carried out in a 96-well plate. […] Fluorescence changes (relative fluorescence units/min, RFU/min) are measured using a fmax fluorescence microplate reader (Molecular Devices with SoftmaxPro software) at 37° C. with excitation and emission wavelengths of 320 nm and 405 nm, respectively. A background rate determined for samples containing no ACE is subtracted from all reactions to calculate the initial rates in RFU/min. […]
The ACE activity of the compound N-{2-([1,2]dithiolan-3-yl)-propionyl}-pyrrolidine-2-carboxylic acid was measured as described above.

T1 sequence (P12821 30-1306): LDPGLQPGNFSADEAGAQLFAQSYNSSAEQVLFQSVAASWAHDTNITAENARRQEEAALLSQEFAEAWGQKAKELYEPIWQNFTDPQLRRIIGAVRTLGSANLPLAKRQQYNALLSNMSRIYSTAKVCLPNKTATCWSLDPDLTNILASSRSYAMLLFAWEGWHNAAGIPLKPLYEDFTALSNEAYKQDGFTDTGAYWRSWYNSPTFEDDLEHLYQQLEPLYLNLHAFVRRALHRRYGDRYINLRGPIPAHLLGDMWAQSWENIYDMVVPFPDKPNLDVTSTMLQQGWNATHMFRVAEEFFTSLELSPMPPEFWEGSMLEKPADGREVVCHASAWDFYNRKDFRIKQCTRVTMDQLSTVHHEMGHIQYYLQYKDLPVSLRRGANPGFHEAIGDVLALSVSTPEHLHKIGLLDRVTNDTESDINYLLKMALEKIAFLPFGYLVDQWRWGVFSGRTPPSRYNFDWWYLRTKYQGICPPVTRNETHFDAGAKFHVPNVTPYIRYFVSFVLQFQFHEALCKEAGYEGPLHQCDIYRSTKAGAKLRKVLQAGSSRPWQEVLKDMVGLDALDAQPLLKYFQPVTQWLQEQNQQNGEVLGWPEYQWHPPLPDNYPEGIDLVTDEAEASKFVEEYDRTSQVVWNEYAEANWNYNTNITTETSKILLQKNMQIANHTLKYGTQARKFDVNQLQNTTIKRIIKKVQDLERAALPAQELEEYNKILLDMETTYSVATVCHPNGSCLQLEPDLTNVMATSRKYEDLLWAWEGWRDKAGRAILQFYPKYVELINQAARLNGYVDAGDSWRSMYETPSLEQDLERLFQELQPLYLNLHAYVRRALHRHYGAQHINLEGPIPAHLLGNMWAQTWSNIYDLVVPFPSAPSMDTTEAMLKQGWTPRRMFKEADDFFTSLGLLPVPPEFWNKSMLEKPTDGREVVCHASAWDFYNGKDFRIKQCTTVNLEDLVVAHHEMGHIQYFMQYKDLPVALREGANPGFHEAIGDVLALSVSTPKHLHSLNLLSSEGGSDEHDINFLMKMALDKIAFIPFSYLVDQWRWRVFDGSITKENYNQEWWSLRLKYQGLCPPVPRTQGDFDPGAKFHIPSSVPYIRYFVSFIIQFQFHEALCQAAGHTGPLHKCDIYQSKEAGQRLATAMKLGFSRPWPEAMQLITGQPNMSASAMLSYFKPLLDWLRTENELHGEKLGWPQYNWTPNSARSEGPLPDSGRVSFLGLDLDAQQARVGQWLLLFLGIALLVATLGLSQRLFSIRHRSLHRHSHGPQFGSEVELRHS

IC50: 64 µM
SMILES: CC(C(=O)N1CCCC1C(=O)O)C1CCSS1 (stereo not shown) [N-{2-([1,2]Dithiolan-3-yl)-propionyl}-pyrrolidine-2-carboxylic acid]
